Test systems include OVCAR-4; SN12C; KM12; RPMI-8226; SF-295; MCF7; SK-OV-3; UACC-62; SK-MEL-5; T47D; IGROV-1; HT-29; HOP-62; MDA-MB-435; COLO 205; MOLT-4; NCI-H226; BT-549; NCI/ADR-RES.
Experiment in all cases: NCI anticancer screen, dose series, 48 h

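Test compounds were applied to cells in 96-well plates for 48 hours at 5 doses. GI50: concentration for 50% inhibition of growth.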 Active and inactive are the calls of the source. Cut-off read from the data, not from the text of the source: active = GI50 up to about 1.1 µM and inactive = higher.

Consider `Cn1c2ccccc2c(=O)c2ccc(Cl)cc21`, for which the GI50 in the experiment with OVCAR-4, with SN12C, in the experiment on KM12, in the experiment with RPMI-8226, in the experiment on SF-295 and in the experiment on MCF7 was > 10 µM (inactive) in each case. Besides, the GI50 in the experiment with SK-OV-3 is 6.71 µM (inactive); with UACC-62 it was > 10 µM (inactive); in the experiment with SK-MEL-5, > 10 µM (inactive); in the experiment on T47D, > 10 µM (inactive); in the experiment on IGROV-1 it was > 10 µM (inactive); with HT-29, > 10 µM (inactive). The GI50 in the experiment with HOP-62, in the experiment on MDA-MB-435, in the experiment with COLO 205 and with MOLT-4 was > 10 µM (inactive) each time.
Take `O=S(=O)(NC1CCCCC1)c1ccc2c(c1)OCCOCCOCCOCCO2`: the GI50 in the experiment on NCI-H226, with SN12C, in the experiment with KM12, in the experiment with RPMI-8226, with SF-295 and with MCF7 was > 100 µM (inactive) each time. Further, the GI50 with SK-OV-3, in the experiment with UACC-62, in the experiment with SK-MEL-5, in the experiment with T47D, in the experiment on IGROV-1 and with HT-29 was > 100 µM (inactive) throughout. Further, the GI50 with HOP-62, in the experiment on MDA-MB-435, in the experiment with COLO 205, with BT-549 and in the experiment with MOLT-4 was > 100 µM (inactive) each time.
For the compound `O=C1CCC2(CC1)Cc1ccccc1C2O` (stereo not drawn), the GI50 in the experiment with OVCAR-4, in the experiment with NCI-H226, with NCI/ADR-RES, in the experiment on SN12C, in the experiment with KM12 and with SF-295 was > 100 µM (inactive) each time. The GI50 with MCF7, in the experiment with SK-OV-3, with UACC-62, in the experiment on SK-MEL-5, in the experiment on T47D and in the experiment with IGROV-1 was > 100 µM (inactive) each time. Besides, the GI50 in the experiment on HT-29, in the experiment with HOP-62, in the experiment on COLO 205, in the experiment with BT-549 and in the experiment on MOLT-4 was > 100 µM (inactive) in each case.
With `CCP(=O)(OC)C1=CCN(C(=O)OCC[Si](C)(C)C)CC1` (stereo not drawn), the GI50 in the experiment on OVCAR-4, with NCI-H226, in the experiment on NCI/ADR-RES, with KM12, with RPMI-8226 and with SF-295 was > 100 µM (inactive) in each case. Besides, the GI50 in the experiment with MCF7, in the experiment on SK-OV-3, in the experiment with UACC-62, in the experiment with SK-MEL-5, with T47D and in the experiment with IGROV-1 was > 100 µM (inactive) in each case. Further, the GI50 with HT-29, in the experiment with HOP-62, with MDA-MB-435, in the experiment on COLO 205 and in the experiment on MOLT-4 was > 100 µM (inactive) each time.
For the compound `Cc1ccc(S(=O)(=O)N/N=C(\c2nc3ccc(Cl)cc3[nH]c2=O)C(O)c2ccco2)cc1` (stereo not drawn), the GI50 in the experiment on OVCAR-4 is > 100 µM (inactive); in the experiment with NCI-H226 it was > 100 µM (inactive); in the experiment with KM12, 66.8 µM (inactive); with SF-295, > 100 µM (inactive); in the experiment with UACC-62, > 100 µM (inactive); in the experiment on SK-MEL-5, > 100 µM (inactive). Further, the GI50 in the experiment with IGROV-1 was > 100 µM (inactive); in the experiment with HT-29, > 100 µM (inactive); in the experiment with COLO 205, > 100 µM (inactive); in the experiment with MOLT-4, 28.1 µM (inactive).
For `CCOC(=O)C(C)(C)Oc1ccc(/C=C/C(=O)c2ccc(Cl)cc2)cc1`, the GI50 in the experiment with OVCAR-4 was 18.9 µM (inactive); in the experiment with NCI-H226, 30 µM (inactive); with SN12C, 19.1 µM (inactive); with RPMI-8226, 10.9 µM (inactive); in the experiment with SF-295, 21 µM (inactive); in the experiment with UACC-62, 20.6 µM (inactive). The GI50 is 14.9 µM (inactive) with SK-MEL-5; 17.3 µM (inactive) in the experiment on IGROV-1; 15.6 µM (inactive) with HT-29; 39.4 µM (inactive) in the experiment with HOP-62; 24 µM (inactive) in the experiment with COLO 205; 19.6 µM (inactive) in the experiment on MOLT-4.
Turning to `Nc1ccc(-c2cssc2=S)cc1`, the GI50 in the experiment with OVCAR-4 was 49.1 µM (inactive); in the experiment with NCI-H226, 56.5 µM (inactive); with NCI/ADR-RES, 41.9 µM (inactive); in the experiment with SN12C, 31.1 µM (inactive); in the experiment on KM12, 42 µM (inactive); with RPMI-8226 it was 0.836 µM (active). For the same compound, the GI50 in the experiment on SF-295 was 33.3 µM (inactive); in the experiment with MCF7, 52.1 µM (inactive); with SK-OV-3, 44.6 µM (inactive); with UACC-62, 26.9 µM (inactive); with SK-MEL-5, 32.8 µM (inactive); in the experiment with IGROV-1 it was 50.7 µM (inactive). The GI50 was 51.9 µM (inactive) with HT-29; 42.1 µM (inactive) with HOP-62; 35.1 µM (inactive) in the experiment on MDA-MB-435; 42.2 µM (inactive) with COLO 205; 36.1 µM (inactive) in the experiment on BT-549; 1.17 µM (inactive) with MOLT-4.
In the case of `O=C1CCC2(c3ccc(Cl)cc3)Nc3ccncc3N12` (stereo not drawn), the GI50 in the experiment on OVCAR-4, in the experiment on NCI-H226, in the experiment with NCI/ADR-RES, with SN12C, in the experiment with KM12 and with SF-295 was > 10 µM (inactive) each time. The GI50 with SK-OV-3 was 5.52 µM (inactive); with UACC-62, > 10 µM (inactive); with IGROV-1 it was > 10 µM (inactive); with HT-29, > 10 µM (inactive); with MDA-MB-435 it was > 10 µM (inactive); in the experiment with BT-549 it was > 10 µM (inactive). For the same compound, the GI50 with MOLT-4 is > 10 µM (inactive).
Turning to `CC(=O)OCC(C)(COC(C)=O)N1C(=O)C2C3c4ccccc4C(c4ccccc43)C2C1=O` (stereo not drawn), the GI50 in the experiment with NCI-H226, in the experiment on KM12, in the experiment on RPMI-8226, in the experiment on SF-295, in the experiment on MCF7 and in the experiment on SK-OV-3 was > 100 µM (inactive) in each case. The GI50 with UACC-62, with SK-MEL-5, with T47D, in the experiment on IGROV-1, with HT-29 and in the experiment on MDA-MB-435 was > 100 µM (inactive) each time. For the same compound, the GI50 in the experiment with COLO 205, in the experiment on BT-549 and in the experiment with MOLT-4 was > 100 µM (inactive) each time.
`C(=C/c1ccc2nc(-c3ccc(/C=C/C=N/NC4=NCCCN4)cc3)cn2c1)/C=N/NC1=NCCCN1`: the GI50 in the experiment with OVCAR-4 is > 100 µM (inactive); with NCI-H226, 14.8 µM (inactive); in the experiment with NCI/ADR-RES it was 22.1 µM (inactive); in the experiment on SN12C it was > 100 µM (inactive); in the experiment on KM12, 6.31 µM (inactive); in the experiment with RPMI-8226 it was 0.822 µM (active). The GI50 in the experiment on SF-295 was > 100 µM (inactive); in the experiment with SK-OV-3 it was > 100 µM (inactive); with UACC-62 it was 30.1 µM (inactive); in the experiment on SK-MEL-5, > 100 µM (inactive); in the experiment with T47D, 40.9 µM (inactive); with IGROV-1, 31.5 µM (inactive). The GI50 in the experiment on HOP-62 is > 100 µM (inactive); in the experiment with MDA-MB-435 it was 26.1 µM (inactive); in the experiment with COLO 205, > 100 µM (inactive); with BT-549 it was > 100 µM (inactive); in the experiment with MOLT-4, 42.2 µM (inactive).
As for `Cc1ccc(C)n1-c1ccccc1C1SCCCS1`, the GI50 with OVCAR-4, with NCI-H226, in the experiment on NCI/ADR-RES, in the experiment on SN12C, in the experiment with KM12 and in the experiment with RPMI-8226 was > 100 µM (inactive) each time. Besides, the GI50 with SF-295 is 54.1 µM (inactive); in the experiment on MCF7 it was 37.3 µM (inactive); with SK-OV-3, > 100 µM (inactive); in the experiment on UACC-62 it was > 100 µM (inactive); in the experiment on SK-MEL-5, > 100 µM (inactive); in the experiment on IGROV-1 it was > 100 µM (inactive). Also, the GI50 in the experiment with HT-29 is 53.3 µM (inactive); in the experiment on HOP-62, 50.8 µM (inactive); in the experiment with MDA-MB-435, > 100 µM (inactive); with COLO 205, > 100 µM (inactive); in the experiment on BT-549, > 100 µM (inactive); with MOLT-4, > 100 µM (inactive).
For the compound `Cc1c(-c2ccccc2)[nH]c2cn[nH]c(=O)c12`, the GI50 with NCI/ADR-RES is 73.8 µM (inactive); in the experiment with KM12, 83.2 µM (inactive); in the experiment with RPMI-8226, 74 µM (inactive); in the experiment with SF-295 it was 41 µM (inactive); in the experiment on MCF7, 45.1 µM (inactive); with SK-OV-3, 42.5 µM (inactive). The GI50 in the experiment with UACC-62 was 59.2 µM (inactive); in the experiment with SK-MEL-5, 67.9 µM (inactive); with IGROV-1 it was > 100 µM (inactive); with HT-29, > 100 µM (inactive); in the experiment on HOP-62 it was 50.9 µM (inactive); with MDA-MB-435 it was > 100 µM (inactive). For the same compound, the GI50 was > 100 µM (inactive) with COLO 205, 75 µM (inactive) in the experiment on BT-549 and 83.2 µM (inactive) in the experiment on MOLT-4.
With `CC(C)=CCCC1(C)C=Cc2c(c(C)cc3c2[nH]c2cc(O)ccc23)O1` (stereo not drawn), the GI50 is 22.7 µM (inactive) with OVCAR-4; > 25 µM (inactive) in the experiment on NCI-H226; > 25 µM (inactive) in the experiment with SN12C; > 25 µM (inactive) in the experiment with KM12; > 25 µM (inactive) in the experiment on RPMI-8226; > 25 µM (inactive) in the experiment with SK-OV-3. In addition, the GI50 in the experiment with UACC-62, with SK-MEL-5, with IGROV-1, in the experiment on HT-29, in the experiment on HOP-62 and in the experiment on COLO 205 was > 25 µM (inactive) each time. Further, the GI50 in the experiment on MOLT-4 was > 25 µM (inactive).

Source of the values: ChEMBL document CHEMBL1201862, “PubChem BioAssay data set” (2004).
